In patent EP4711369A1, “1H-[1,2,3]TRIAZOLO[4,5-H]QUINAZOLINE COMPOUNDS AS PROTEIN KINASE INHIBITORS” (Chengdu Cynogen Bio-Pharmaceutical Technology Co., Ltd., priority 2023, dated 2024):

Columns and labels:
CDK2/cyclin E = CDK2/cyclin E (Homo sapiens, UniProt P24941); assay: Assay of kinase activity (ADP-Glo); format: biochemical; conditions: kinase inhibitory activity, read-out: CDK2/E1 IC50
How it was run: (§1)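 Kinase preincubated 10 min with compound in 50 mM Hepes, 10 mM MgCl2, 0.01% Brij35, 2 mM DTT, then substrate/ATP added for 60 min at 25 °C. ADP formed measured by ADP-Glo luminescence; IC50 by nonlinear concentration-response fitting.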

CDK4/cyclin D1 = CDK4/cyclin D1 (Homo sapiens, UniProt P11802); assay: Assay of kinase activity (ADP-Glo); format: biochemical; conditions: kinase inhibitory activity
Sequence of CDK4/cyclin D1 (P11802 whole entry, species assumed): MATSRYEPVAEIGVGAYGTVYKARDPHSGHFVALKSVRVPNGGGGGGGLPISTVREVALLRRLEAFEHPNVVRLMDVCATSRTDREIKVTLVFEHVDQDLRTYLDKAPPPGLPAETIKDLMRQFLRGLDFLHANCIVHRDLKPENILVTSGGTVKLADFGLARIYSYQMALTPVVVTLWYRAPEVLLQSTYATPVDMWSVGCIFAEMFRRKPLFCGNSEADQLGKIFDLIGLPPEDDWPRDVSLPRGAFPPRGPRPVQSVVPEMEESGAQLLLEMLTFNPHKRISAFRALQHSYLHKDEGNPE
Sequence of CDK4/cyclin D1 (P24385 whole entry partner, species assumed): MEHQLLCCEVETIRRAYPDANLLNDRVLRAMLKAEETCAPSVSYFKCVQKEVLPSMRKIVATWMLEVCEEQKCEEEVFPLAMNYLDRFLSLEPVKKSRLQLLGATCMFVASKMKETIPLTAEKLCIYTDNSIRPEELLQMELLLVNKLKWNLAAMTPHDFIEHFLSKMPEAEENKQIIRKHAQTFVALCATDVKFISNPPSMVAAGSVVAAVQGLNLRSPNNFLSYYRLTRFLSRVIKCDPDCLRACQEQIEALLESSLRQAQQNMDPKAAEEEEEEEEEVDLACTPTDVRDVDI
How it was run: as §1

CDK6/cyclin D3 = CDK6/cyclin D3 (Homo sapiens, UniProt Q00534); assay: Assay of kinase activity (ADP-Glo); format: biochemical; conditions: kinase inhibitory activity
Sequence of CDK6/cyclin D3 (Q00534 whole entry, species assumed): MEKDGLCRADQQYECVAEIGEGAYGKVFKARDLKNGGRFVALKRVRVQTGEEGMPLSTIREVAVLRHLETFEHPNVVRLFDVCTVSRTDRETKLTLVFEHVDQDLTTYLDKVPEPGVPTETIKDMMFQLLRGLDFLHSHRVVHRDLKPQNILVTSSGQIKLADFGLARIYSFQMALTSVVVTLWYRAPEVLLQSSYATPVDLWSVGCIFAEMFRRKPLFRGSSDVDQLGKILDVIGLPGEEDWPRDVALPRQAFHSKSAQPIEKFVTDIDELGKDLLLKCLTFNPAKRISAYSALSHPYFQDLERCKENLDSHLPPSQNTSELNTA
Sequence of CDK6/cyclin D3 (P30281 whole entry partner, species assumed): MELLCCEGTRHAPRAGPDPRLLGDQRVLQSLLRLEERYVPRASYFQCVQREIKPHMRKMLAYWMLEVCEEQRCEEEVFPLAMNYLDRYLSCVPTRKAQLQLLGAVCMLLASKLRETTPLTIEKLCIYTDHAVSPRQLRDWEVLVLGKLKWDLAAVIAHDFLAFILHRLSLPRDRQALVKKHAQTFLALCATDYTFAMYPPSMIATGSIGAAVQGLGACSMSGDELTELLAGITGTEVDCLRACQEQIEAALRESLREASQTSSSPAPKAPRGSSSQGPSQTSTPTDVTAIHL
How it was run: (§2)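 Human CDK6/cyclin D3 and CDK9/cyclin T1 preincubated 10 min at 25 °C with compound in 50 mM Hepes, 10 mM MgCl2, 0.01% Brij35, 2 mM DTT, then reacted 60 min at 25 °C with substrate and ATP. ADP formed measured by ADP-Glo luminescence; IC50 from nonlinear concentration-response fitting.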

CDK9/cyclin T1 = CDK9/cyclin T1 (Homo sapiens, UniProt P50750); assay: Assay of kinase activity (ADP-Glo); format: biochemical; conditions: kinase inhibitory activity
Sequence of CDK9/cyclin T1 (P50750 whole entry, species assumed): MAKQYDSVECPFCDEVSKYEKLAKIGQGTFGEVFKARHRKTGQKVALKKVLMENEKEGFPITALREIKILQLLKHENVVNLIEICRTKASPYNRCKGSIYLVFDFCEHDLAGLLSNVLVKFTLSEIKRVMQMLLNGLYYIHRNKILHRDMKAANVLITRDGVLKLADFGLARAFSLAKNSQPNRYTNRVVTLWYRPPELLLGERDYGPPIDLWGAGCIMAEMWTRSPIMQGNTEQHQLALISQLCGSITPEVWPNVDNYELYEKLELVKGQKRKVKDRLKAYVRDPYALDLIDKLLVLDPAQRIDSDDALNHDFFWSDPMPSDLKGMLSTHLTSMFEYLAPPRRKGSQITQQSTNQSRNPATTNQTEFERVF
Sequence of CDK9/cyclin T1 (O60563 whole entry partner, species assumed): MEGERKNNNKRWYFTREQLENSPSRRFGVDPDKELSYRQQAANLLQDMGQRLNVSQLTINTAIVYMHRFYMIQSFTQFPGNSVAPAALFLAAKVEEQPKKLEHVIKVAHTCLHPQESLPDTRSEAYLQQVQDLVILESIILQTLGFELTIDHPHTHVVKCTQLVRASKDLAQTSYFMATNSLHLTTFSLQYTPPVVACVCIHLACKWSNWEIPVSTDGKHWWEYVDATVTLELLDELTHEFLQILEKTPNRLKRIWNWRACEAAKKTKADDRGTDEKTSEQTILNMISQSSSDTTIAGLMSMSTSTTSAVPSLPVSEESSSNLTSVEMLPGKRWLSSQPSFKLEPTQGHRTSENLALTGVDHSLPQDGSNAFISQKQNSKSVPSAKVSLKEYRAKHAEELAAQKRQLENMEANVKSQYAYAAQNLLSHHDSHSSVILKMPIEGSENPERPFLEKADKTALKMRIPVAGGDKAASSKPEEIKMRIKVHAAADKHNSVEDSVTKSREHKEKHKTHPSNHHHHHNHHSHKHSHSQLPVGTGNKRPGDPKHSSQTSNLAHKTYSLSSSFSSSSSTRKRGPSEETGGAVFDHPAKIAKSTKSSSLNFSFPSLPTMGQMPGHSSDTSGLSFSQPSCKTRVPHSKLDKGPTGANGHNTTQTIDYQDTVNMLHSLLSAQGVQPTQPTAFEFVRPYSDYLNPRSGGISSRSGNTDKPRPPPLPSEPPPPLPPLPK
How it was run: as §2

[1] = tested on: human acute myeloid leukemia MV-4-11 cells; assay: Assay of cell proliferation (CellTiter-Glo); format: cell-based; conditions: MV4-11, 144 h, 6 days, read-out: MV-4-11 IC50 of cell proliferation inhibitory activity
How it was run: (§3)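 Cells seeded per line at growth-adapted densities, treated 6 days at 37 °C/5% CO2 with nine 3-fold dilutions (10 µM to 0.1 nM final, 0.5% DMSO). Viability by CellTiter-Glo luminescence; IC50 from four-parameter fit.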

[2] = tested on: human breast cancer HCC1806 cells; assay: Assay of cell proliferation (CellTiter-Glo); format: cell-based; conditions: Homo sapiens, 144 h, 6 days, read-out: HCC1806 IC50 of cell proliferation inhibitory activity
How it was run: as §3

[3] = tested on: human breast cancer MCF-7 cells; assay: Assay of cell proliferation (CellTiter-Glo); format: cell-based; conditions: 144 h, MCF7 cells, 6 days, read-out: MCF7 IC50 of cell proliferation inhibitory activity
How it was run: as §3

[4] = tested on: human colon cancer HCT-116 cells; assay: Assay of cell proliferation (CellTiter-Glo); format: cell-based; conditions: 144 h, 6 days, read-out: HCT-116 IC50 of cell proliferation inhibitory activity
How it was run: as §3

[5] = tested on: human gastric cancer MKN1 cells; assay: Assay of cell proliferation (CellTiter-Glo); format: cell-based; conditions: Homo sapiens, MKN-1, 144 h; MNK1, 6 days; read-out: MKN1 IC50 of cell proliferation inhibitory activity
How it was run: as §3

[6] = tested on: Human ovarian cancer OVCAR3 cells; assay: Assay of cell proliferation (CellTiter-Glo); format: cell-based; conditions: Homo sapiens, OVCAR-3, 144 h, 6 days, read-out: OVCAR3 IC50 of cell proliferation inhibitory activity
How it was run: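 OVCAR3 cells, 2000/well in RPMI 1640 with 20% FBS, treated with nine 3-fold dilutions from 10 µM to 0.1 nM (0.5% DMSO) for 6 days at 37 °C. Viability by CellTiter-Glo luminescence; IC50 by four-parameter fit.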

IC50 (CDK2/cyclin E) [nM]	IC50 (CDK4/cyclin D1) [nM]	IC50 (CDK6/cyclin D3) [nM]	IC50 (CDK9/cyclin T1) [nM]	IC50 [1] [nM]	IC50 [2] [nM]	IC50 [3] [nM]	IC50 [4] [nM]	IC50 [5] [nM]	IC50 [6] [nM]	Compound
0.08	0.5	8	5	3	24	18	25	8	12	CC(C)n1nnc2ccc3cnc(Nc4ccc(C(=O)N5CC[C@H](N)C5)cc4)nc3c21 [Example I-4, (S)-(3-Aminopyrrolidin-1-yl)(4-((1-isopropyl-1H-[1,2,3]triazolo[4,5-H]quinazolin-8-yl)amino)phenyl)methanone]
0.8	4	16	11	15	403	167	80	28	140	CC(C)n1nnc2ccc3cnc(Nc4ccc(C(=O)N5CCC(O)CC5)cc4)nc3c21 [Example I-36, (4-Hydroxypiperidin-1-yl)(4-((1-isopropyl-1H-[1,2,3]triazolo[4,5-H]quinazolin-8-yl)amino)phenyl)metha none]
0.8	3	11	10	20	832	239	136	58	372	CC(C)n1nnc2ccc3cnc(Nc4ccc(C(=O)N5CCC(F)(F)CC5)cc4)nc3c21 [Example I-37, (4,4-Difluoropiperidin-1-yl)(4-((1-isopropyl-1H-[1,2,3]triazolo[4,5-H]quinazolin-8-yl)amino)phenyl)metha none]
0.1	0.8	3	3	5	20	8	11	16	14	CN[C@@H]1CCN(C(=O)c2ccc(Nc3ncc4ccc5nnn(C(C)C)c5c4n3)cc2)C1 [Example I-7, (R)-(4-((1-Isopropyl-1H-[1,2,3]triazolo[4,5-H]quinazolin-8-yl)amino)phenyl)(3-(methylamino)pyrrolidin-1-yl)methanone]
